Source: ChEMBL document CHEMBL1133609, “DoMCoSAR: a novel approach for establishing the docking mode that is consistent with the structure-activity relationship. Application to HIV-1 protease inhibitors and VEGF receptor tyrosine kinase inhibitors” (J Med Chem, 2000)

These molecules were tested against Human immunodeficiency virus type 1 protease (Human immunodeficiency virus 1, UniProt Q72874) (assay: Inhibitory activity against HIV-1 protease.).

Compared with `CC(C)(C)OC(=O)N[C@@H](Cc1ccccc1)[C@@H](O)C[C@@H](Cc1ccccc1)C(=O)N[C@@H]1c2ccccc2OC[C@H]1O`, `CC(C)(C)OC(=O)N[C@@H](Cc1ccccc1)[C@@H](O)C[C@@H](Cc1ccccc1)C(=O)N[C@H]1c2ccccc2OC[C@@H]1O` is 230-fold higher in IC50: 0.18 nM for the first, 40.6 nM for the second.

Going from `CC(C)(C)OC(=O)N[C@@H](Cc1ccccc1)[C@@H](O)C[C@@H](Cc1ccccc1)C(=O)N[C@@H]1c2ccccc2[C@@H](O)[C@H]1O` to `CC(C)(C)OC(=O)N[C@@H](Cc1ccccc1)[C@@H](O)C[C@@H](CCCc1ccccc1)C(=O)N[C@@H]1c2ccccc2[C@@H](O)[C@H]1O`, the IC50 rises from 0.1 nM to 0.19 nM (1.9-fold). The first is the more potent here.

`Cc1ccc(C[C@H](C[C@H](O)[C@H](Cc2ccccc2)NC(=O)OC(C)(C)C)C(=O)N[C@@H]2c3ccccc3C[C@H]2O)cc1` and `CC(C)(C)OC(=O)N[C@@H](Cc1ccccc1)[C@@H](O)C[C@@H](Cc1ccc(N)cc1)C(=O)N[C@@H]1c2ccccc2C[C@H]1O` are within 1.5-fold of each other in IC50: 0.29 nM for the first, 0.31 nM for the second.

`CC(C)(C)OC(=O)N[C@@H](Cc1ccccc1)[C@@H](O)C[C@@H](CSc1ccccc1)C(=O)N[C@@H]1c2ccccc2C[C@H]1O` and `CC(C)(C)OC(=O)N[C@@H](Cc1ccccc1)[C@@H](O)C[C@@H](Cc1ccccc1)C(=O)N[C@@H]1c2ccccc2C[C@H]1O` are the same in IC50: 0.25 nM for the first, 0.25 nM for the second.

Compared with `CC(C)(C)OC(=O)N[C@@H](Cc1ccccc1)[C@@H](O)C[C@@H](Cc1ccccc1)C(=O)N[C@H]1CCc2ccccc21`, `CC(C)(C)OC(=O)N[C@@H](Cc1ccccc1)[C@@H](O)C[C@@H](Cc1ccccc1)C(=O)N[C@@H]1c2ccccc2CC[C@H]1O` is 49-fold lower in IC50: 34.3 nM for the first, 0.7 nM for the second. The second is the more potent here.

Going from `CC(C)(C)OC(=O)N[C@@H](Cc1ccccc1)[C@@H](O)C[C@@H](Cc1ccc(C(F)(F)F)cc1)C(=O)N[C@@H]1c2ccccc2C[C@H]1O` to `CC(C)(C)OC(=O)N[C@@H](Cc1ccccc1)[C@@H](O)C[C@@H](Cc1ccc(C(C)(C)C)cc1)C(=O)N[C@@H]1c2ccccc2C[C@H]1O`, the IC50 falls from 0.26 nM to 0.17 nM (1.5-fold). The second is the more potent here.

Compared with `CC(C)(C)OC(=O)N[C@@H](Cc1ccccc1)[C@@H](O)C[C@@H](CC(=O)c1ccccc1)C(=O)N[C@@H]1c2ccccc2C[C@H]1O`, `CC(C)(C)OC(=O)N[C@@H](Cc1ccccc1)[C@@H](O)C[C@@H](C/C=C/c1ccccc1)C(=O)N[C@@H]1c2ccccc2C[C@H]1O` is 24-fold lower in IC50: 5.42 nM for the first, 0.23 nM for the second.

Going from `CC(C)(C)OC(=O)N[C@@H](Cc1ccccc1)[C@@H](O)C[C@@H](Cc1ccc(O)cc1)C(=O)N[C@@H]1c2ccccc2C[C@H]1O` to `CC(C)(C)OC(=O)N[C@@H](Cc1ccccc1)[C@@H](O)C[C@@H](Cc1ccc(I)cc1)C(=O)N[C@@H]1c2ccccc2C[C@H]1O`, the IC50 rises from 0.16 nM to 0.719 nM (4.5-fold). The first is the more potent here.

Going from `CC(C)(C)OC(=O)N[C@@H](Cc1ccccc1)[C@@H](O)CCC(=O)N[C@@H]1c2ccccc2C[C@H]1O` to `C=CC[C@H](C[C@H](O)[C@H](Cc1ccccc1)NC(=O)OC(C)(C)C)C(=O)N[C@@H]1c2ccccc2C[C@H]1O`, the IC50 falls from 2940 nM to 27.5 nM (110-fold).

Going from `CC(C)(C)OC(=O)N[C@@H](Cc1ccccc1)[C@@H](O)C[C@@](C)(Cc1ccccc1)C(=O)N[C@@H]1c2ccccc2C[C@H]1O` to `COC(=O)[C@@H]1Cc2ccccc2[C@H]1NC(=O)[C@H](Cc1ccccc1)C[C@H](O)[C@H](Cc1ccccc1)NC(=O)OC(C)(C)C`, the IC50 rises from 7.71 nM to 66.2 nM (8.6-fold). The first is the more potent here.

Compared with `CC(C)(C)OC(=O)N[C@@H](Cc1ccccc1)[C@@H](O)C[C@@H](Cc1ccncc1)C(=O)N[C@@H]1c2ccccc2C[C@H]1O`, `CC(C)(C)OC(=O)N[C@@H](Cc1ccccc1)[C@@H](O)C[C@@H](Cc1ccc([N+](=O)[O-])cc1)C(=O)N[C@@H]1c2ccccc2C[C@H]1O` is 2-fold lower in IC50: 0.53 nM for the first, 0.27 nM for the second. The second is the more potent here.

Going from `CC(C)(C)OC(=O)N[C@@H](Cc1ccccc1)[C@@H](O)C[C@@H](Cc1c(F)c(F)c(F)c(F)c1F)C(=O)N[C@@H]1c2ccccc2C[C@H]1O` to `CC(C)(C)OC(=O)N[C@@H](Cc1ccccc1)[C@@H](O)C[C@@H](Cc1ccccc1)C(=O)N[C@@H]1C=CC[C@H]1O`, the IC50 rises from 0.6 nM to 9.53 nM (16-fold). The first is the more potent here.

Work on `CC(C)(C)OC(=O)N[C@@H](Cc1ccccc1)[C@@H](O)C[C@@H](Cc1ccccc1)C(=O)N[C@@H]1CCCC[C@H]1O` yielded an IC50 of 122 nM.

These molecules were tested against Vascular endothelial growth factor receptor 2 (Mus musculus, UniProt P35918) (assay: Inhibitory activity against vascular endothelial growth factor receptor 2 (FLK1)).
Sequence of Vascular endothelial growth factor receptor 2 (P35918 whole entry): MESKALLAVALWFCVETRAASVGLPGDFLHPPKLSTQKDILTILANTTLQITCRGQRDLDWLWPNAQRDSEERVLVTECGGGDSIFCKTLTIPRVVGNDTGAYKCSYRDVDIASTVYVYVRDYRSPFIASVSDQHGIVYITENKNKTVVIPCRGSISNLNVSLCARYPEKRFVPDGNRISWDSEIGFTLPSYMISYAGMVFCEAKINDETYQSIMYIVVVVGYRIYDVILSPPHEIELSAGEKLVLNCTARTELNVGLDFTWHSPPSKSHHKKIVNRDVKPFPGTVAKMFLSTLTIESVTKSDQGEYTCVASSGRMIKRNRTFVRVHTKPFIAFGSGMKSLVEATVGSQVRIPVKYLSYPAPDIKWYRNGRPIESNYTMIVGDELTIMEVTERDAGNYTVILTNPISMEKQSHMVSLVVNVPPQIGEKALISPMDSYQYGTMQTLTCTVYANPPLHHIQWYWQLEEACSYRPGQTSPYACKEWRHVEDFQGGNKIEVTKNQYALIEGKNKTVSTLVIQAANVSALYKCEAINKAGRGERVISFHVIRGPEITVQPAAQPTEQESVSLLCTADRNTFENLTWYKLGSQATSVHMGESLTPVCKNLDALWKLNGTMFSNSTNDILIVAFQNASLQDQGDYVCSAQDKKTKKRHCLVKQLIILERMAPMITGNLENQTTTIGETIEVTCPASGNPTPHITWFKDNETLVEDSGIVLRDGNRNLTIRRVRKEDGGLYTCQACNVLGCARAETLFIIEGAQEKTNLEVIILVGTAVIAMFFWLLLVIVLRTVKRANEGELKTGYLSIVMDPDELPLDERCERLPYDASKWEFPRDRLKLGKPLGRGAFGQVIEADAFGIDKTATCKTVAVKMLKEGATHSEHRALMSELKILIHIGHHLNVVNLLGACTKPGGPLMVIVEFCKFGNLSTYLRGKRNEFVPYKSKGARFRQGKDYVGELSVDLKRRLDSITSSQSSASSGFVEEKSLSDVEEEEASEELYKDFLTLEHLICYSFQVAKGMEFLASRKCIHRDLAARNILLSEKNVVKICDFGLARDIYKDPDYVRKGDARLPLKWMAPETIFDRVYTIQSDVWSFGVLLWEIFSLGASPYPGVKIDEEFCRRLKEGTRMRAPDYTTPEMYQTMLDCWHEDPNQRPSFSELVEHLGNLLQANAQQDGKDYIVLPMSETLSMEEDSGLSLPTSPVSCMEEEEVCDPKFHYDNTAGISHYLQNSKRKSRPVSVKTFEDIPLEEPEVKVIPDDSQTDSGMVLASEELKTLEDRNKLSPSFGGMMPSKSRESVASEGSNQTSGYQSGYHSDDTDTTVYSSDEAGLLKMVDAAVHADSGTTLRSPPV

Compared with `O=C1Nc2ccccc2/C1=C\c1cc(Br)cs1`, `CCc1ccc(/C=C2/C(=O)Nc3ccccc32)s1` is 290-fold lower in IC50: 1000 µM for the first, 3.39 µM for the second. The second is the more potent here.

Compared with `Cn1cc(Cl)c(/C=C2/C(=O)Nc3ccccc32)n1`, `O=C1Nc2ccccc2/C1=C\c1n[nH]cc1Cl` is 130-fold lower in IC50: 1000 µM for the first, 7.41 µM for the second.

Going from `CC(C)c1cc(/C=C2/C(=O)Nc3ccccc32)cc(C(C)C)c1O` to `CC(C)(C)c1cc(/C=C2/C(=O)Nc3ccccc32)cc(Br)c1O`, the IC50 rises from 8.51 µM to 46.8 µM (5.5-fold). The first is the more potent here.

`O=C1Nc2ccccc2/C1=C\c1ccc(N2CCCC2)cc1` and `O=C1Nc2ccccc2/C1=C\c1ccc(N2CCCCC2)cc1` are within 1.5-fold of each other in IC50: 3.02 µM for the first, 4.47 µM for the second.

Compared with `CCOC(=O)c1c(C)[nH]c(/C=C2/C(=O)Nc3ccccc32)c1C`, `CCc1c(C)[nH]c(/C=C2/C(=O)Nc3ccccc32)c1C` is 14000-fold higher in IC50: 0.0708 µM for the first, 1000 µM for the second.

`COc1ccc(/C=C2/C(=O)Nc3ccccc32)cc1C(C)(C)C` and `COc1ccc(/C=C2\C(=O)Nc3ccc(Cl)cc32)cc1C(C)(C)C` are the same in IC50: 1000 µM for the first, 1000 µM for the second.

Going from `O=C1Nc2ccccc2/C1=C\c1ccc(O)cc1` to `O=C1Nc2ccccc2/C1=C\c1ccc(Br)cc1`, the IC50 rises from 2.69 µM to 1000 µM (370-fold). The first is the more potent here.

Compared with `CN(C)c1ccc(/C=C2/C(=O)Nc3cc(F)ccc32)cc1`, `CN(C)c1ccc(/C=C2/C(=O)Nc3ccccc32)cc1` is 5.8-fold lower in IC50: 4.57 µM for the first, 0.794 µM for the second.

`Cc1cc(C)c(/C=C2/C(=O)Nc3cc(F)ccc32)[nH]1` and `O=C1Nc2cc(F)ccc2/C1=C\c1ccc[nH]1` are the same in IC50: 0.708 µM for the first, 0.708 µM for the second.

Going from `Cc1c[nH]c(/C=C2/C(=O)Nc3ccccc32)c1C` to `CCOC(=O)c1c[nH]c(/C=C2/C(=O)Nc3ccccc32)c1C`, the IC50 falls from 2.69 µM to 0.182 µM (15-fold).

First: O=C1Nc2ccccc2/C1=C\c1ccco1
Second: Cn1cccc1/C=C1/C(=O)Nc2ccccc21
The IC50 of the first is 49-fold higher: 1000 µM for the first, 20.4 µM for the second. The second is the more potent here.

First: C/C(=C1\C(=O)Nc2ccccc21)c1ccc(N2CCCCC2)cc1
Second: O=C1Nc2ccccc2/C1=C\c1ccc(N2CCOCC2)cc1
The IC50 of the first is 400-fold higher: 1000 µM for the first, 2.51 µM for the second. The second is the more potent here.

Compared with `O=CN1CCN(c2ccc(/C=C3\C(=O)Nc4ccccc43)cc2)CC1`, `O=CN1CCN(c2ccc(/C=C3\C(=O)Nc4ccc(Br)cc43)cc2)CC1` is 19-fold higher in IC50: 5.13 µM for the first, 100 µM for the second. The first is the more potent here.

First: COc1ccc(/C=C2/C(=O)Nc3ccccc32)cc1
Second: CSc1ccc(/C=C2/C(=O)Nc3ccccc32)s1
The IC50 of the first is 3.2-fold higher: 7.59 µM for the first, 2.34 µM for the second.

First: CN1C(=O)/C(=C/c2ccc(Br)cc2)c2ccccc21
Second: CN(C)c1ccc(/C=C2/C(=O)N(C)c3ccccc32)cc1
The IC50 of the first is 45-fold higher: 1000 µM for the first, 22.4 µM for the second.

First: Cc1c[nH]c(/C=C2/C(=O)Nc3ccccc32)c1CCC(O)O
Second: CCc1c(/C=C2/C(=O)Nc3ccccc32)[nH]c(C)c1C
The IC50 of the first is 2.8-fold higher: 0.398 µM for the first, 0.141 µM for the second. The second is the more potent here.

First: CC(C)(C)c1cc(/C=C2/C(=O)Nc3ccccc32)cc(C(C)(C)C)c1O
Second: COc1c(Br)cc(/C=C2\C(=O)Nc3ccc(Cl)cc32)cc1C(C)(C)C
The IC50 of the first is 120-fold lower: 8.32 µM for the first, 1000 µM for the second.

`CSc1ccc(/C=C2\C(=O)Nc3cccc(C)c32)s1` and `O=C1Nc2ccc([N+](=O)[O-])cc2/C1=C/c1ccc[nH]1` are the same in IC50: 1000 µM for the first, 1000 µM for the second.

`O=C1Nc2ccc(Br)cc2/C1=C/c1ccc(N2CCOCC2)cc1` was tested, and the IC50 was 50.1 µM.
